Test results as given in PubChem BioAssay AID192 (DTP/NCI, 2004).
Where “and” joins values, the source holds several entries; their conditions need not be identical. Identical values can stand only once. Toxic doses and inconclusive results are not listed.

Test system: BDF1 mice, B16 melanoma ip, median survival T/C
Experiment: NCI In Vivo Anticancer Drug Screen. Data for tumor model B16 Melanoma (intraperitoneal) in B6D2F1 (BDF1) mice
Conditions: endpoint: median survival time, higher = longer survival
Summary of the method: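 Tumor-bearing mice received test compound or vehicle. Survival or tumor size was then measured in both groups. The treated-group figure was divided by the control-group figure.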

[1] = dose: 12.5 mg/kg/injection, schedule: Q01DX009 (ip), vehicle: saline with Tween-80
[2] = dose: 25.0 mg/kg/injection, schedule: Q01DX009 (ip), vehicle: saline with Tween-80
[3] = dose: 50.0 mg/kg/injection, schedule: Q01DX009 (ip), vehicle: saline with Tween-80
[4] = dose: 100.0 mg/kg/injection, schedule: Q01DX009 (ip), vehicle: saline with Tween-80
[5] = dose: 200.0 mg/kg/injection, schedule: Q01DX009 (ip), vehicle: saline with Tween-80
[6] = dose: 400.0 mg/kg/injection, schedule: Q01DX009 (ip), vehicle: saline with Tween-80
[7] = dose: 25.0 mg/kg/injection, schedule: Q01DX009 (ip), vehicle: Klucel (hydroxypropylcellulose) (HPC)
[8] = dose: 50.0 mg/kg/injection, schedule: Q01DX009 (ip), vehicle: Klucel (hydroxypropylcellulose) (HPC)
[9] = dose: 100.0 mg/kg/injection, schedule: Q01DX009 (ip), vehicle: Klucel (hydroxypropylcellulose) (HPC)
[10] = dose: 12.5 mg/kg/injection, schedule: Q01DX009 (ip), vehicle: Klucel (hydroxypropylcellulose) (HPC)
[11] = dose: 100.0 mg/kg/injection, schedule: Q04DX003 (ip), vehicle: Klucel (hydroxypropylcellulose) (HPC)
[12] = dose: 200.0 mg/kg/injection, schedule: Q04DX003 (ip), vehicle: Klucel (hydroxypropylcellulose) (HPC)
[13] = dose: 400.0 mg/kg/injection, schedule: Q04DX003 (ip), vehicle: Klucel (hydroxypropylcellulose) (HPC)
[14] = dose: 200.0 mg/kg/injection, schedule: Q01DX009 (ip), vehicle: Klucel (hydroxypropylcellulose) (HPC)
[15] = dose: 400.0 mg/kg/injection, schedule: Q01DX009 (ip), vehicle: Klucel (hydroxypropylcellulose) (HPC)
[16] = dose: 100.0 mg/kg/injection, schedule: Q04DX003 (ip), vehicle: saline with Tween-80

Compound: Cc1ccc(C(=O)CCl)c(C)c1
- T/C [1]: 90 % of control
- T/C [2]: 92 % of control
- T/C [3]: 95 % of control

Compound: CCC(=O)Oc1[nH]c(C)c(C(C)=O)c1C
- T/C [4]: 102 % of control
- T/C [5]: 100 % of control
- T/C [6]: 95 % of control

Compound: CCC1(C(C)Br)OC2=C(CC(C#N)(C#N)C(C#N)(C#N)C2)O1 (stereo not drawn)
- T/C (dose: 75.0 mg/kg/injection, schedule: Q04DX003 (ip), vehicle: Klucel (hydroxypropylcellulose) (HPC)): 87 % of control

Compound: COc1cc([NH-])c([NH-])cc1OC.[Cl][Pt+2][Cl]
- T/C (dose: 10.0 mg/kg/injection, schedule: Q01DX009 (ip), vehicle: saline with Tween-80): 97 % of control
- T/C (dose: 20.0 mg/kg/injection, schedule: Q01DX009 (ip), vehicle: saline with Tween-80): 104 % of control
- T/C (dose: 40.0 mg/kg/injection, schedule: Q01DX009 (ip), vehicle: saline with Tween-80): 103 % of control
- T/C (dose: 80.0 mg/kg/injection, schedule: Q01DX009 (ip), vehicle: saline with Tween-80): 104 % of control
- T/C (dose: 160.0 mg/kg/injection, schedule: Q01DX009 (ip), vehicle: saline with Tween-80): 94 % of control

Compound: C=COCCCCCC(C)C
- T/C [7]: 97 % of control
- T/C [8]: 102 % of control
- T/C [9]: 86 % of control and 91 % of control

Compound: O=S1(=O)C=CCCC=C1
- T/C (dose: 6.25 mg/kg/injection, schedule: Q01DX009 (ip), vehicle: Klucel (hydroxypropylcellulose) (HPC)): 102 % of control
- T/C [10]: 98 % of control
- T/C [7]: 95 % of control
- T/C [8]: 98 % of control and 102 % of control

Compound: COc1ccc(N=C(C(=Nc2ccc(OC)cc2)c2ccccc2)c2ccccc2)cc1
- T/C [11]: 102 % of control
- T/C [12]: 103 % of control
- T/C [13]: 101 % of control

Compound: Cc1cccc(Nc2c(N)nc(N)nc2N)c1
- T/C [10]: 101 % of control
- T/C [7]: 104 % of control
- T/C [8]: 106 % of control

Compound: N#CCCc1ccc(O)cc1
- T/C (dose: 50.0 mg/kg/injection, schedule: Q01DX009 (ip), vehicle: gum acacia): 100 % of control
- T/C (dose: 50.0 mg/kg/injection, schedule: Q04DX003 (ip), vehicle: gum acacia): 100 % of control
- T/C (dose: 100.0 mg/kg/injection, schedule: Q01DX009 (ip), vehicle: gum acacia): 89 % of control
- T/C (dose: 100.0 mg/kg/injection, schedule: Q04DX003 (ip), vehicle: gum acacia): 106 % of control
- T/C (dose: 200.0 mg/kg/injection, schedule: Q01DX009 (ip), vehicle: gum acacia): 91 % of control
- T/C (dose: 200.0 mg/kg/injection, schedule: Q04DX003 (ip), vehicle: gum acacia): 95 % of control

Compound: CC(=O)/C=C/c1ccc(O)cc1
- T/C [9]: 113 % of control
- T/C [14]: 116 % of control
- T/C [15]: 93 % of control

Compound: Oc1ccc(Br)cc1-c1nc2cc(Cl)c(Cl)cc2nc1-c1cc(Br)ccc1O
- T/C [7]: 87 % of control
- T/C [8]: 86 % of control
- T/C [9]: 91 % of control and 94 % of control

Compound: CC(=O)N(C)C(C(=O)N1CC(C)CC1C(=O)N(C)C1C(=O)NC(CC(C)C)C(=O)N2CC(C)CC2C(=O)NC(CC(C)C)C(=O)N(C)C(C(C)C)C(=O)N2CCCC2C(=O)N(C)C(CC(C)C)C(=O)NCC(=O)OC1C)C(C)C (stereo not drawn)
- T/C (dose: 18.75 mg/kg/injection, schedule: Q01DX009 (ip), vehicle: Klucel (hydroxypropylcellulose) (HPC)): 94 % of control
- T/C (dose: 37.5 mg/kg/injection, schedule: Q01DX009 (ip), vehicle: Klucel (hydroxypropylcellulose) (HPC)): 97 % of control
- T/C (dose: 75.0 mg/kg/injection, schedule: Q01DX009 (ip), vehicle: Klucel (hydroxypropylcellulose) (HPC)): 94 % of control

Compound: NC(CSCc1ccccc1)C(=O)O (stereo not drawn)
- T/C [7]: 98 % of control
- T/C [8]: 106 % of control
- T/C [9]: 102 % of control
- T/C [14]: 98 % of control
- T/C [15]: 117 % of control

Compound: COC(=O)c1ccc(=O)c2nc3/c(=C/O)c(O)cc(=O)c3[nH]c12
- T/C (dose: 0.01 mg/kg/injection, schedule: Q01DX009 (ip), vehicle: saline with Tween-80): 102 % of control
- T/C (dose: 0.01 mg/kg/injection, schedule: Q04DX003 (ip), vehicle: saline with Tween-80): 91 % of control
- T/C (dose: 0.02 mg/kg/injection, schedule: Q01DX009 (ip), vehicle: saline with Tween-80): 90 % of control
- T/C (dose: 0.02 mg/kg/injection, schedule: Q04DX003 (ip), vehicle: saline with Tween-80): 102 % of control
- T/C (dose: 0.04 mg/kg/injection, schedule: Q01DX009 (ip), vehicle: saline with Tween-80): 95 % of control
- T/C (dose: 0.04 mg/kg/injection, schedule: Q04DX003 (ip), vehicle: saline with Tween-80): 106 % of control

Compound: COC(=O)C1(C(=O)OC)CC1CCl (stereo not drawn)
- T/C [16]: 90 % of control
- T/C (dose: 200.0 mg/kg/injection, schedule: Q04DX003 (ip), vehicle: saline with Tween-80): 96 % of control

Compound: CCCn1c(=S)[nH]c2ccccc2c1=O
- T/C [7]: 120 % of control
- T/C [2]: 100 % of control
- T/C [8]: 100 % of control
- T/C [3]: 92 % of control
- T/C (dose: 66.0 mg/kg/injection, schedule: Q01DX009 (ip), vehicle: saline with Tween-80): 100 % of control
- T/C [9]: 86 % of control and 102 % of control
- T/C [4]: 87 % of control and 94 % of control
- T/C (dose: 150.0 mg/kg/injection, schedule: Q01DX009 (ip), vehicle: saline with Tween-80): 86 % of control

Compound: O=S(=O)(Nc1ccc(O)cc1)c1ccccc1
- T/C [4]: 97 % of control
- T/C [5]: 93 % of control
- T/C [6]: 90 % of control

Compound: Brc1cc(Br)c(-c2c(Br)cc(Br)cc2Br)c(Br)c1
- T/C [9]: 102 % of control
- T/C [14]: 88 % of control

Compound: O=c1[nH]cnc2c1cnn2-c1ccccc1
- T/C [9]: 90 % of control
- T/C [14]: 90 % of control
- T/C [15]: 103 % of control

Compound: N#CC1C(=O)c2ccccc2C1=O
- T/C [2]: 114 % of control
- T/C [3]: 106 % of control

Compound: CC(=O)OC1CCC(C2CCCCC2)CC1 (stereo not drawn)
- T/C [4]: 111 % of control
- T/C [5]: 118 % of control

Compound: OCc1ccccc1
- T/C [4]: 94 % of control
- T/C [5]: 100 % of control
- T/C [6]: 108 % of control

Compound: CCC(=O)Oc1ccc(/C=N/NC(N)=S)nc1
- T/C (dose: 50.0 mg/kg/injection, schedule: Q01DX009 (ip), vehicle: saline): 153 % of control
- T/C (dose: 100.0 mg/kg/injection, schedule: Q01DX009 (ip), vehicle: saline): 121 % of control

Compound: O=c1sc(N=Nc2ccccc2)nn1-c1ccccc1
- T/C [11]: 94 % of control
- T/C [12]: 89 % of control

Compound: CCCCCCCCCCCCCCCCOc1ccccc1C(C)=O
- T/C [2]: 92 % of control
- T/C [3]: 92 % of control
- T/C [4]: 89 % of control
- T/C [6]: 100 % of control

Compound: C=CCNC(=O)/C=C/C(=O)NCC=C
- T/C (dose: 25.0 mg/kg/injection, schedule: Q04DX003 (ip), vehicle: saline with Tween-80): 123 % of control
- T/C [16]: 121 % of control

Compound: N#C/C(=C\c1c[nH]c2ccccc12)C(N)=O
- T/C [4]: 108 % of control
- T/C [5]: 108 % of control
- T/C [6]: 108 % of control

Compound: CCCCCCCCCC(=O)OC(C)C(=O)N(CCCC)CCCC (stereo not drawn)
- T/C [2]: 98 % of control
- T/C [3]: 97 % of control
- T/C [4]: 88 % of control

Compound: ClC(Cl)(Cl)c1ccc(C(Cl)(Cl)Cl)cc1
- T/C (dose: 50.0 mg/kg/injection, schedule: Q04DX003 (ip), vehicle: saline): 102 % of control
- T/C (dose: 100.0 mg/kg/injection, schedule: Q04DX003 (ip), vehicle: saline): 95 % of control
- T/C (dose: 200.0 mg/kg/injection, schedule: Q04DX003 (ip), vehicle: saline): 95 % of control

Compound: Cc1cc2nc3[nH]c4ccccc4c3nc2cc1C
- T/C [2]: 97 % of control
- T/C [3]: 97 % of control
- T/C [5]: 86 % of control

Compound: Cc1ccc(/C=N\N=C\c2ccc(C)cc2)cc1
- T/C [3]: 100 % of control
- T/C [4]: 88 % of control

Compound: CCN(C(=O)Nc1cccc(Cl)c1)c1ccccc1
- T/C [4]: 102 % of control
- T/C [5]: 100 % of control
- T/C [6]: 110 % of control

Compound: CCOC(=O)NC(C)(C)CN(CCCO)C(=O)OCC
- T/C [11]: 100 % of control
- T/C [12]: 100 % of control
- T/C [13]: 97 % of control

Compound: Cc1ccc(C)c(NC(=O)NC(C)C)c1
- T/C [9]: 106 % of control
- T/C [14]: 100 % of control
- T/C [15]: 103 % of control

Compound: CC1CCCC(C)N1NC1=NCCO1 (stereo not drawn)
- T/C [1]: 97 % of control
- T/C [2]: 102 % of control
- T/C [3]: 97 % of control

Compound: O=C(/C(=C/c1ccccc1)CBr)c1ccccc1
- T/C (dose: 0.13 mg/kg/injection, schedule: Q01DX009 (ip), vehicle: saline with Tween-80): 89 % of control
- T/C (dose: 0.25 mg/kg/injection, schedule: Q01DX009 (ip), vehicle: saline with Tween-80): 100 % of control
- T/C (dose: 0.5 mg/kg/injection, schedule: Q01DX009 (ip), vehicle: saline with Tween-80): 86 % of control and 100 % of control
- T/C (dose: 1.0 mg/kg/injection, schedule: Q01DX009 (ip), vehicle: saline with Tween-80): 89 % of control and 92 % of control
- T/C (dose: 2.0 mg/kg/injection, schedule: Q01DX009 (ip), vehicle: saline with Tween-80): 89 % of control
- T/C (dose: 4.0 mg/kg/injection, schedule: Q01DX009 (ip), vehicle: saline with Tween-80): 89 % of control
